Like-named read-outs stand apart in the source and are kept apart here.

Test [1] deals with Common cutworms (Spodoptera litura) with second instar larvae. Description: Insecticidal test against common cutworm (leaf dip). It is filed as in vivo. Conditions: foliar, 144 h, read-out: insecticidal rate (rate of dead insects). As to the method:
Insecticidal Test Against Common Cutworm
(§1) A 10% emulsifiable concentrate (depending on the compounds, 25% wettable powder was applied for the test) of the compound of the present invention was diluted with water containing a spreading agent to prepare a chemical solution with a concentration of 100 ppm. To the chemical solution was dipped leaves of Chinese olive for about 10 seconds, and after air-drying, they were placed in a laboratory dish, then, 10 Common cutworms (Spodoptera litura) with second instar larvae per the dish were released therein, and the dish was covered with a lid having holes and contained at a thermostat chamber at 25° C. A number of dead insect(s) after 6 days was counted and a rate of dead insects was calculated by the following calculation formula. Incidentally, the test was carried out with two districts. Rate of dead insects (%)=(Number of dead insects/Number of released insects)×100

Test [2] relates to diamondback moths (Plutella xylostella) with second instar larvae. The experiment in a line: Insecticidal test against diamondback moth (leaf dip). The test is classed as in vivo. Particulars: foliar, 144 h, read-out: insecticidal rate (rate of dead insects). How it is done: Insecticidal Test Against Diamondback Moth
as §1, with “diamondback moths (Plutella xylostella)” for “Common cutworms (Spodoptera litura)”, “in” for “by”, “same manner as in Test Example 1.” for “following calculation formula.”, “districts.” for “districts. Rate of dead insects (%)=(Number of dead insects/Number of released insects)×100”

[3] abbreviates: chemical solution 100 ppm, leaf dip, 25° C., dead insects counted after 6 days.

As for `Cc1cc(C2(C(F)(F)F)C=NC(c3ccccc3)C2)ccc1NC(=O)c1cccc(I)c1C(=O)NC(C)C` (stereo not drawn) [7-04, 3-Iodo-N^2-isopropyl-N^1-[2-methyl-4-(2-phenyl-4-trifluoromethyl-3,4-dihydro-2H-pyrrol-4-yl)phenyl]phthalic diamide], the pest or weed control at 100 ppm in test [1] (setting [3]) and in test [2] (setting [3]) was not below 80% throughout.

Consider `CC1=NC(c2ccc(Cl)cc2)=CC(c2ccc(NC(=O)c3cccc(I)c3C(=O)NC(C)C)c(C)c2)(C(F)(F)F)N1` (stereo not drawn) [8-01, N^1-[4-[6-(4-chlorophenyl)-2-methyl-4-trifluoromethyl-3,4-dihydropyrimidin-4-yl]-2-methylphenyl]-3-iodo-N^2-isopropylphthalic diamide], for which the pest or weed control at 100 ppm in test [1] (setting [3]) and in test [2] (setting [3]) was not below 80% each time.

For the molecule `Cc1cc(C2(C(F)(F)F)CC2(C#N)C#N)ccc1NC(=O)c1cccc(I)c1C(=O)NC(C)C` (stereo not drawn) [9-001, N^1-[4-(2,2-dicyano-1-trifluoromethylcyclopropyl)-2-methylphenyl]-3-iodo-N^2-isopropylphthalic diamide], the pest or weed control at 100 ppm in test [1] (setting [3]) and in test [2] (setting [3]) was not below 80% in each case.

As for `CSCC(C)NC(=O)c1c(I)cccc1C(=O)Nc1ccc(C2(c3ccc(Cl)cc3)CC2(F)F)cc1C` (stereo not drawn) [9-026, N^1-[4-(2,2-difluoro-1-(4-chlorophenyl)cyclopropyl)-2-methylphenyl]-3-iodo-N^2-(1-methyl-2-methylthioethyl)phthalic diamide], the pest or weed control at 100 ppm in test [1] (setting [3]) and in test [2] (setting [3]) was not below 80% throughout.

With `CSCC(C)NC(=O)c1c(I)cccc1C(=O)Nc1ccc(C2(c3ccc(Cl)cc3)CC2(Cl)Cl)cc1C` (stereo not drawn) [9-041, N^1-[4-(2,2-dichloro-1-(4-chlorophenyl)cyclopropyl)-2-methylphenyl]-3-iodo-N^2-(1-methyl-2-methylthioethyl)phthalic diamide], the pest or weed control at 100 ppm in test [1] and in test [2] was not below 80% each time.

`Cc1cc(C2(c3ccc(Cl)cc3)CC2(F)F)ccc1NC(=O)c1cccc(I)c1C(=O)NC(C)CS(C)(=O)=O` (stereo not drawn) [9-065, N^1-[4-(2,2-difluoro-1-(4-chlorophenyl)cyclopropyl)-2-methylphenyl]-3-iodo-N^2-(1-methyl-2-methylsulfonylethyl)phthalic diamide]: the pest or weed control at 100 ppm in test [1] (setting [3]) and in test [2] (setting [3]) was not below 80% in each case.
